Source: ChEMBL document CHEMBL4052645, “Discovery of potent and efficacious pyrrolopyridazines as dual JAK1/3 inhibitors” (Bioorg Med Chem Lett, 2017)

Columns and labels:
[1] = molecular target: Serine/threonine-protein kinase DCLK2 (Homo sapiens) (UniProt Q8N568); experiment: Inhibition of wild-type human partial length DCAMKL2 (K273 to V664 residues) expressed in bacterial expression system assessed as residual activity at 50 nM by Kinomescan method relative to control
[2] = Half life in BALB/c mouse at 2 mg/kg, iv; type: ADME, organism-based; conditions: in vivo
[3] = Inhibition of ACTR2 (unknown origin) assessed as residual activity at 50 nM by Kinomescan method relative to control; conditions: Homo sapiens

Sequence of Serine/threonine-protein kinase DCLK2 (Homo sapiens) (Q8N568 whole entry, the tested form may be a part): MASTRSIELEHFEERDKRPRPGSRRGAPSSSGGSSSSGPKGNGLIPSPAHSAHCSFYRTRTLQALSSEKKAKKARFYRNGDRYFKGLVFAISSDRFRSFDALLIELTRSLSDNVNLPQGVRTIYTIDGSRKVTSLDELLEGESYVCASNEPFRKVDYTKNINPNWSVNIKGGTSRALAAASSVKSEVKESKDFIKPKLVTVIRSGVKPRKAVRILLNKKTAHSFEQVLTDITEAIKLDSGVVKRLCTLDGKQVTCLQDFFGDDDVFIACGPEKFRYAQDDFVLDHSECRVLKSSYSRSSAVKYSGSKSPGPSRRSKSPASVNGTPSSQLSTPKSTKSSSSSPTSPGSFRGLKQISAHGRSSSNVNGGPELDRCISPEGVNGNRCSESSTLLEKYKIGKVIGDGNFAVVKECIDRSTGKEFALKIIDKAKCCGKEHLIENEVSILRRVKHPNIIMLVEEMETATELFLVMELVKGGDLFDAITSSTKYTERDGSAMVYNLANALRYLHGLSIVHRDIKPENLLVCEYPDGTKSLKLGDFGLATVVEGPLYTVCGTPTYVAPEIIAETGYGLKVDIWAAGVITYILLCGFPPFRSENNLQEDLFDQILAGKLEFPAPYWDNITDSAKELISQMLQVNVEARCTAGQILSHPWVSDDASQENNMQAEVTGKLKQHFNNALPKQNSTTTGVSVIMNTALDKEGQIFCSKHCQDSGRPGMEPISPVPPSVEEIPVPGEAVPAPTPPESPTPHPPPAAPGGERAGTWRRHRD

Compound `COc1ccc(-c2cc3c(N[C@@H]4CC[C@](C)(N)C4(C)C)c(C(N)=O)cnn3c2)cn1` has an Activity [1] of 100%, a half-life [2] of 6.5 h and an Activity [3] of 100%.
